Reference: a melting point compilation (Tetko et al.; mined from patent text by program, amines drawn as free bases though some values may be those of a salt)

melting point [°C]	Compound
204 to 205	CC(C)N1CCC(CNc2ccc(NS(C)(=O)=O)cc2C(=O)Nc2ccc(Cl)cn2)CC1
168 to 169	CCOC(=O)c1cn(C2CC2)c2c(F)c(N3CCOC(CN(C)C)C3)c(F)cc2c1=O (configuration not stated)
156 to 157	CCOC(=O)Cc1cn(Cc2ccccc2)nc1O
136 to 138	CCCC(=O)Nc1c(C)c(C)c2c(c1C)CC(C)(C)O2
183	CCc1ccccc1NC=C1C(=O)N(c2ccccn2)N=C1C
106 to 107	O=C1Oc2ccccc2CN1C1CCN(Cc2ccccc2)CC1
310 to 321	O=c1[nH]c2cc([N+](=O)[O-])c(S(=O)(=O)N(CCO)CCO)cc2[nH]c1=O
145 to 146	CN(C)C(=O)c1ccc(CN(C)C(=O)C23CC4CC(CC(C4)C2)C3)s1
86 to 88	CC(C)(C)COc1ccc([N+](=O)[O-])cc1Br
107 to 108	CC(C)(O)c1cc(Br)cnc1N
155 to 156	CCOC(=O)c1cc2cc(C=CC(=O)c3ccc(C)cc3)cc(C(C)CC)c2oc1=O (configuration not stated)
34 to 36	Cc1nc(-c2ccc(N)c(Br)c2)c[nH]1
> 290	Cc1[nH]c(=O)c(C#N)c2c1CC(c1ccccc1)CC2 (configuration not stated)
141 to 142	COC(=O)C(C(=O)Nc1ccc(F)cc1)=C1SCS1
278 to 280	Cc1c(-c2ccc(O)cc2)n(Cc2ccc(/C=C/C(=O)N(C)C)cc2)c2ccc(O)cc12
51 to 54	CCOc1ccc(C(C)=NOCCO)cc1
108 to 109	CCOc1ccccc1OCC(O)CNC(C)=CC(=O)c1ccc(C)nc1 (single isomer, unassigned; (-))
100 to 101	O=C(O)CCCCCOc1ccc(OCc2ccccc2)cc1
74.5 to 75.5	CCOC(=O)CNC(=O)C(C)(C(C)C)C(C)C
190 to 191	COc1ccc2[nH]c(C)c(C=O)c2c1
101 to 102	CC1CC(Nc2nnc(-c3cccc(Oc4cccc(C(F)(F)F)c4)c3)s2)CC(C)(C)C1 (configuration not stated)
195	COc1ccncc1-c1cccc(OC2SCC(O)C(O)C2O)c1 (configuration not stated)
224 to 226	COc1ccc2[nH]c([S+]([O-])Cc3ncc(C)c(OC)c3C)nc2n1 (configuration not stated)
168 to 169	Oc1ccc(-c2ccc3ccccc3c2)nc1
113 to 115	O=[N+]([O-])c1ccc(Oc2cccc3cccnc23)c(Cl)c1

melting point [°C]	Compound
213 to 217	Cc1ccc(-c2ccc(S(=O)(=O)N3CCN(C(=O)C4CCN(c5ccncc5)CC4)CC3)cc2)cc1
230	COc1ccc(CSc2ccncc2C(=O)O)cc1
85 to 86	Cc1noc(CN2CCC[C@@H](OCc3cc(C(F)(F)F)cc(C(F)(F)F)c3)[C@H]2c2ccccc2)n1 (relative stereo)
286 to 290	O=C(O)c1[nH]c2cc(Cl)cc(Cl)c2c1NCS(=O)(=O)c1ccccc1
> 220	COc1ccc2c(c1)OC(CN)C2 (configuration not stated)
112 to 113	Cc1c(-c2ccccc2)oc2c(CCl)cccc2c1=O
154 to 155	CC(C(N)=O)c1ccc2c(c1)C(=O)Cc1ccccc1O2 (configuration not stated)
105 to 107	CC(O)(C(N)=O)c1ccc(OS(=O)(=O)C(F)(F)F)cc1 (configuration not stated)
139 to 140	CC(=O)C(=Cc1ccc(S(C)(=O)=O)cc1)C(C)=O
169 to 171	O=C(O)CCNC(=O)NCCCN1CCN(c2ccccc2)CC1
116	CCCCCCCCCCCCN(c1ccccc1)c1cccc2ccccc12
96 to 99	COc1ccc(/C=C(\C#N)c2ccc(C(F)(F)F)cc2)cc1OC1CCCC1
186 to 187	O=C(O)c1cccc(-c2cccc(OCc3ccc(Cl)cc3Cl)n2)c1
56 to 58	CCOC(=O)CCC(=O)[C@H](Cc1ccccc1)NC(=O)OC(C)(C)C
262 to 264	O=C(c1nccs1)c1cnn2c(-c3cccnc3)ccnc12
102 to 104	CCOC(=O)C(NC(=O)CCl)N(C(=O)CCl)c1cscn1 (configuration not stated)
161 to 162	Cn1cccc1C1=CC(=O)c2nccnc2C1=O
266 to 268	Cc1nc2c(O)cccc2c(=O)n1C1CCC(=O)NC1=O (configuration not stated)
31 to 40	c1ccc(CN2CCC3(CC(c4ccccc4)=NO3)C2)cc1 (configuration not stated)
> 180	C=Cc1cc(OP(=O)(O)O)cc2nc(-c3ccc(OP(=O)(O)O)c(F)c3)oc12
121	O=S(=O)(CC(O)(CBr)c1cccc(F)c1)c1ccccc1Cl (configuration not stated)
81 to 82	O=C(c1cccnc1)N1CCC=N1
110 to 115	CN(C)C(=O)c1c(C(=O)CBr)c2cc(Cl)ccc2n1C(=O)OC(C)(C)C
63 to 64	CSC(=C[N+](=O)[O-])NCCSCc1nccs1
146 to 149	N=C(NC1CC1)NN1CCc2cc(Cl)ccc21

melting point [°C]	Compound
129 to 131	CCCN(CCC)CC(=O)Nc1ncc(Oc2cc(I)c(OC)cc2C(C)C)c(N)n1
242	O=C(Nc1cc(Cl)ccc1S(=O)(=O)c1ccccc1)N[C@@H](Cc1ccc(NC(=O)c2c(Cl)cccc2Cl)cc1)C(=O)O
94 to 95	CCc1c(O)ccc2c1CCCC2
286	Cc1cccc2c1[nH]c1c(C(=O)O)cccc12
292 to 294	CC1(n2cc(C(=O)O)c(=O)c3cc(F)c(F)c(F)c32)CC1
102	O=C(NO)[C@H](CNCS(=O)(=O)c1ccc(OCc2ccccc2)cc1)N1CCCCC1
108	O=c1cc(N2CCOCC2)nc2n1CC[C@@H](C(F)(F)F)N2
81 to 82	Cc1ccc2c(c1)SC(c1ccc(OCCCCCBr)cc1)C(=O)N2C (configuration not stated)
102 to 105	CN(C)CCCOc1cccc(CC(=O)c2cccc(OCCCN(C)C)c2)c1
285 to 288	CCCc1nn(C)c2c(=O)[nH]c(-c3cc(C(=O)O)ccc3OCC)nc12
> 280	O=[N+]([O-])c1ccc(NN=C2c3ncc(Cl)cc3C=CC2Cl)c([N+](=O)[O-])c1 (configuration not stated)
62 to 63	CC(C)OC(=O)Cc1nc(-c2ccccc2)oc1-c1ccsc1
158	CC(=O)c1nn(-c2c(Cl)cc(C(F)(F)F)cc2Cl)c(N)c1S(=O)(=O)c1ccc(Cl)cc1
56 to 58	CN(C)Cc1ccccc1Sc1ccc(F)cc1N
248 to 250	O=C(O)c1cnn2c(-c3cccc(C(F)(F)F)c3)ccnc12
130 to 131	CCCCc1nnc(SCc2ccc(OC)cc2)n1Cc1ccc(O)cc1
158	CCOC(=O)C(=O)Nc1cc(OC)ccc1[N+](=O)[O-]
65	COc1cc(C(C)=NOCc2ccc3nonc3c2)ccc1F
178 to 180	CCCCc1cn(CCCC)c(=O)n1Cc1ccc(-c2cccnc2-c2nnn[nH]2)cc1
223 to 224	COC(=O)c1cc(OC)cc(-c2ccc(NC(C)=O)cc2)n1
127 to 131	CC1(C)[C@@H](NCC(=O)N2C[C@@H](F)C[C@H]2C#N)CC[C@@]1(C)c1nc(-c2ccc(F)cc2)no1
146 to 149	COc1cccc([C@H]2O[C@H](CC(=O)Nc3cc(C(=O)O)ccc3F)C(=O)N(CC(C)(C)COC(C)=O)c3ccc(Cl)cc32)c1OC
142 to 144	C=CS(=O)(=O)NCc1ccc(C(N)=O)cc1
133 to 134	Cc1cc(-c2cccc(C(F)(F)F)c2)n2nc(C(F)(F)F)nc2n1
109 to 110	Cc1cc(OCCN(C)C)c(C(C)C)cc1OC(=O)CCCC(=O)O

melting point [°C]	Compound
215 to 217	CC(CCCC(C)(C)O)C1CCC2C3CCC4(O)CC(=O)CCC4(C)C3CCC12C (configuration not stated)
173 to 175	CCn1ccc(Nc2cc(Cl)nn(C)c2=O)n1
143 to 144	CC(C)CCSc1cc(C(=O)O)cc([N+](=O)[O-])c1-c1ccccc1
138 to 140	CSc1nnc(-c2ccccc2CS(N)(=O)=O)o1
158 to 160	CCOC(=O)c1cc(-c2ccc(N)cc2)n(-c2ccc(F)cc2)n1
121 to 131	COc1ccccc1N1CCN(C[C@@H](CC2CCCCC2)NC(=O)C2CCCCC2)CC1
71	CC(C)(C#N)CCCCOc1cc(-c2ccccc2)cc(-c2ccccc2)n1
224 to 226	N#CC(C(=O)NCC(=O)O)C(=O)c1nn(-c2ccccc2)c2c1CSc1ccccc1-2 (configuration not stated)
260 to 261	CC1(C)OC(=O)Nc2ccc(-c3cc(F)cc([N+](=O)[O-])c3)cc21
188 to 189	N=C(Nc1cc(NC(=O)/C=C/c2ccccc2C(F)(F)F)ccc1Cl)c1ccccc1
213 to 214	COc1ccc(/C=C/c2ccc3c(=O)n(-c4ccccn4)ncc3c2)cc1
177 to 179	O=C(O)C1=NN(c2ccc(Cl)cc2)C(c2ccccc2)C1 (configuration not stated)
69 to 70	CCOC(=O)Cc1nc(-c2ccc(Cl)cc2)oc1C
189 to 191	CC1(C)CC(OC(=O)N=NC(=O)OC2CC(C)(C)N(OC3CCCCC3)C(C)(C)C2)CC(C)(C)N1OC1CCCCC1
198	COc1cc(OC)c(S(C)(=O)=O)cc1C(=O)NCC1CCCN1C1CCCC1 (configuration not stated)
159 to 161	CCOC(=O)c1cn(-c2ccccc2)c2ccc(CN3CCOCC3)cc2c1=O
66	CC(C)(SC(F)(F)F)C(=O)C(Oc1ccc(Cl)cc1)n1cncn1 (configuration not stated)
81 to 83	Nc1sc2c(c1C(=O)c1ccc(Cl)s1)CCN(Cc1ccccc1)C2
165 to 166	COc1ccc(-c2nn(C(C)C)c(=O)c(C(N)=O)c2-c2ccc(OC)cc2)cc1
83 to 84	Cc1cn(C2CC(O)(COCc3ccccc3)C(CO)O2)c(=O)n(COCc2ccccc2)c1=O (configuration not stated)
217 to 218	CC(C)(CO)CNC(=O)c1n[nH]cc1NC(=O)c1ccccn1
97 to 98	COc1cccc(C(CCCCCCc2ccccc2)CNC(=O)Cc2c(Cl)cncc2Cl)c1 (configuration not stated)
68 to 69	CON=C(C(=O)N(C)C)C(C)=NOCc1ccc(C)cc1

Compound	melting point [°C]
CSC1=Nc2c(C)ccnc2N(C2CC2)c2ncccc21	173 to 177
O=C(NC1CCCCC1)NC1CCN(CCc2c[nH]c3ccccc23)CC1	204
COc1ccc([PH](=O)c2ccc(OC)cc2)cc1	126
N#Cc1ccc(NC(=O)OC2CN3CCC2CC3)cc1 (configuration not stated)	180 to 182
